Assays:
Type in all cases: cell-based
U-118 = experiment: Cell viability assay (CellTiter-Blue/CellTiter-Glow); conditions: brain carcinoma cell line U-118; absolute IC50; 72 h
How it was run: (§1)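 Tumour cells were plated at 4,000-20,000 cells/well (up to 60,000 for haematological lines) in RPMI 1640 or DMEM with 10% FCS, then exposed 24 h later to compounds for 72 h at 37 °C. Viability was read by CellTiter-Blue fluorescence or CellTiter-Glo luminescence; absolute IC50 taken at T/C=50%.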

ZR-75-1 = experiment: as above; conditions: Homo sapiens; breast carcinoma cell line ZR-75-1; absolute IC50; 72 h
How it was run: as §1

CHP-134 = experiment: as above; conditions: Homo sapiens; brain carcinoma cell line CHP-134; absolute IC50; 72 h
How it was run: as §1

SH-SY-5Y = experiment: as above; conditions: Homo sapiens, SH-SY5Y; brain carcinoma cell line SH-SY-5Y; absolute IC50; 72 h
How it was run: as §1

parental H69 cells = experiment: as above; conditions: Homo sapiens, NCI-H69; SCLC parental H69 cells
How it was run: as §1

[1] = system: brain carcinoma PDX GBM14-CHA; experiment: PDX-derived cell culture cytotoxicity (CellTiter-Glo); conditions: 120 h; PDX brain carcinoma GBM14-CHA (FIG. 3); 5 days
Procedure: (§2) PDX-derived cell cultures were obtained from tumors explanted from mice and isolated by mechanical and enzymatic dissociation. […] Cells were harvested and seeded in 96-wells plates at a density of 1.25 to 5×10^3 cells/well for cytotoxicity assays. Cells were incubated 48 h at 37° C. prior to addition of test molecules and vehicle (DMSO, 0.1%) at desired final concentrations. Cell viability was assessed before drugs' addition (To) and 5 days after test molecules addition by measuring ATP cell content using CellTiter-Glo® Luminescent Cell Viability Assay (Promega) according to the manufacturer's instructions. Luciferase activity was measured on a luminometer (PerkinElmer® EnVision™). Each concentration of compounds was tested in triplicate.
(§3) Viability was calculated as a percentage of ATP value compared to vehicle treated controls.
(§4) For PDX primary cell cultures, the tumour tissue was washed with PBS containing antibiotic-antimycotic and non-tumour tissue and necrotic tumour tissues were separated. The tumour tissue was transferred to a new dish and cut into 1-2 mm^3 fragments, resuspended in RPMI-1640 medium and centrifuged at 1,200 rpm for 6 min at room temperature. The pelleted material was resuspended with 15 mL of Tumour Cell Digestion Solution and incubated at 37° C. for 1 hour with agitation. Following further addition of media, centrifugation and passage through a […] cell strainer, the homogenous cell mixture was layered onto 15 mL of Ficoll-Paque PLUS in a 50 mL conical tube and centrifuged for 15 min at 1,600 rpm. The interface cells were collected, washed with media, separated by centrifugation at 1,200 rpm. The cell pellet was resuspended in serum free media supplemented with growth factors. 10,000 cells/wells were plated in a 96 well plate and incubated at 37° C., 5% CO2, 95% air and 100% relative humidity overnight. The cytotoxicity assay was conducted as above. IC50 values represent absolute IC50.

[2] = system: small cell lung carcinoma PDX SC6; experiment: as above; conditions: 120 h; small cell lung carcinoma PDX SC6 (FIG. 13); 5 days
Procedure: as §2, §3, §4

`O=c1cc(-c2ccc(CCCC[P+](c3ccccc3)(c3ccccc3)c3ccccc3)cc2)oc2c3c(ccc12)OCO3.[Br-]` [SND123, 4-[4-(6-oxo-[1,3]dioxolo[4,5-h]chromen-8-yl)phenyl]butyl-triphenylphosphonium bromide] showed an IC50 (U-118) of 8.3 µM, an IC50 (ZR-75-1) of 2.5 µM and an IC50 (CHP-134) of 1.8 µM. For the same compound, the IC50 (SH-SY-5Y) was 4.9 µM.
`CCNC(=O)Oc1ccc2c(=O)cc(-c3ccc(CCCC[P+](c4ccccc4)(c4ccccc4)c4ccccc4)cc3)oc2c1O.[Br-]` [SND126A, 4-[4-[7-(Ethylcarbamoyloxy)-8-hydroxy-4-oxo-chromen-2-yl]phenyl]butyltriphenylphosphonium bromide] gave an IC50 (parental H69 cells) of 3.63 µM.
For `COc1c(O)ccc2c(=O)cc(-c3ccc(CCCC[P+](c4ccccc4)(c4ccccc4)c4ccccc4)cc3)oc12.[Br-]` [SND140, (4-(4-(7-hydroxy-8-methoxy-4-oxo-4H-chromen-2-yl)phenyl)butyl)triphenylphosphonium bromide], the IC50 [1] was 6.47 µM and the IC50 [2] was 7.02 µM.
